Drawing on BindingDB's records for doi:10.1021/acs.jmedchem.7b01492 (Peking University, 2019), this text covers EC50 for 1 molecule.

For orientation: EC50 means the midpoint of the concentration-response curve.

In this assay the target is Neuronal acetylcholine receptor subunit alpha-7 (Homo sapiens, UniProt P36544). The experiment in a line: Positive allosteric modulation of human alpha7 nAChR expressed in Xenopus laevis oocytes assessed as increase in acetylcholine-induced channel current by measuring acetylcholine EC50 at 10 uM at -90 mV holding potential preincubated for 2 mins followed by co-application with acetylcholine for 10 secs by two-electrode voltage clamp method (Rvb = 256.4 +/- 20.1 uM).
Sequence of Neuronal acetylcholine receptor subunit alpha-7 (P36544 whole entry): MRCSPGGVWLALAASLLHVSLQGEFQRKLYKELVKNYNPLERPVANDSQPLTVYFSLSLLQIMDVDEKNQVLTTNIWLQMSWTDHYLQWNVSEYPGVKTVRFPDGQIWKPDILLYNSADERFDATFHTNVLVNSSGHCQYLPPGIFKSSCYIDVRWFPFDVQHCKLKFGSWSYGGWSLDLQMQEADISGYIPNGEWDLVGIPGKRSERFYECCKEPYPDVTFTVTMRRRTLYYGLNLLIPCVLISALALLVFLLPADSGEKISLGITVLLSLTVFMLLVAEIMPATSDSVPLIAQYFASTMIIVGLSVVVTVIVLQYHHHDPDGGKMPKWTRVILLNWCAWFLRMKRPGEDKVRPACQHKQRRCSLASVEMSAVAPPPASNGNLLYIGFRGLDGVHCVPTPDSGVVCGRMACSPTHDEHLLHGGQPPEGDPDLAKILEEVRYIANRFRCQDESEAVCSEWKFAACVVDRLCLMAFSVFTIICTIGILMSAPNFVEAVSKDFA

Take `Cc1cccc(Cl)c1-n1cnc2nc(SCc3ccccc3)sc2c1=O`: the EC50 is 187 µM.
